Like-named read-outs stand apart in the source and are kept apart here. No end group written: not given here.
Legend:
[1] = target: T1, Aβ1-42 peptide (Homo sapiens, UniProt P05067); conditions: Soto et al. 1996, 1998; cited from earlier work
[2] = system: Aβ1-42 peptide induced neurotoxicity in neuronal cell culture; assay: Protection against Aβ1-42 peptide induced neurotoxicity in neuronal cell culture; type: cell-based; conditions: for inhibition of Aβ1-42 peptide induced neurotoxicity: 1:10 and 1:20; for reduction of Aβ1-42 neurotoxicity: added before Aβ1-42 peptides were allowed to polymerize; for amyloid plaque inhibition activity with protected termini: N- or C-terminal protected or both protected, data not shown
Description: These peptides were tested in cell toxicity assays for their ability to prevent cell death (i.e., for example, by apoptotic mechanisms) induced by the Aβ1-42 peptide (SEQ ID NO:157).
(§1) An in vitro neuronal cell culture was grown to confluence and studied by cell count as a measure of neurotoxicity. Neurotoxicity was observed following one or two days of incubation with either polymerized Aβ1-42 peptide into amyloid fibrils (ag) or free (i.e., non-polymerized) Aβ1-42 peptides (sol). (See FIG. 9).
(See FIG. 11A). […] (See FIG. 11B).

[3] = system: in vitro neuronal cell culture; assay: Neurotoxicity of inhibitor peptides alone in neuronal cell culture (cell count); type: cell-based; conditions: peptide alone
Description: as §1

[4] = as above; type: cell-based; conditions: neuronal cell culture, 48 Hour Incubation, read-out: % Survival
Description: as §1

[5] = target: T2, GpA70-86 fibrils (Homo sapiens, UniProt P02724); assay: Glycophorin A transmembrane peptide (GpA70-86) fibril formation, solid-state NMR; type: biochemical; conditions: for ability to inhibit amyloid fibril formation: "this assay system" of Example 2
T2 construct: comprising a 17 amino acid peptide corresponding to amino acid residues 70-86
Description: In the experiments below, magic-angle-spinning (MAS) NMR was performed at 360 and 600 MHz on Bruker Avance NMR spectrometers using 4 mm MAS rotors. The cross polarization contact time was 2 ms, two-pulse phase-modulated (TPPM) decoupling was used during the evolution and mixing periods and the dipolar-assisted rotational-resonance (DARR) mixing time was 1 sec. The proton field strength was set to the n =1 rotational resonance condition during the mixing period. Takegoshi et al., “^13C-^1H Dipolar-Driven ^13C-^13C Recoupling Without ^13C RF Irradiation In Nuclear Magnetic Resonance Of Rotating Solids” J. Chem. Phys. 118:2325-2341 (2003). DARR gives rise to off-diagonal cross peaks in the 2D NMR spectra if the ^13C . . . ^13C contacts are less than 6 A apart.
This experiment tested the idea that the large side chain amino acids on one sheet dovetail into the grooves formed by glycine on an opposing β-sheet using a mixture of two differently labeled pools of GpA70-86 peptide. A first set of peptides were labeled with a single ^13C isotope label at the backbone carbonyl carbon of Gly^79. A second set of peptides were ^13C -labeled at the Met^81 methyl side chain group. Computer modeling of the GpA70-86 peptide β-sandwich predicted an inter-β-sheet distance of 3-5 Å between the carbonyl ^13C of Gly^79 and the ^13CH3 of Met^81. The intra-sheet distance, however, was predicted to be ˜8-10 Å, and outside of the detection range of the NMR experiment used. Solid-state NMR techniques measured the intermolecular distance between Met^81 13C-labeled methyl side chains and the carbonyl ^13C-Gly^79 on adjacent β-sheets.
A truncated […], that mimics Aβ1-42 protein, was incubated with a glycine-rich transmembrane peptide (i.e., similar to APP). This target peptide corresponds to glycophorin A's transmembrane domain comprising a 17 amino acid peptide corresponding to amino acid residues 70-86. Glycophorin A, as a complete protein, is not known to form amyloid-like fibrils.

[6] = target: Aβ1-42 protein (SEQ ID NO: 157) (Homo sapiens, UniProt P05067); assay: Appearance (clearing, gel formation) of Aβ1-42 suspensions at pH 7; type: biochemical
Description: (§2) The amyloid fibril inhibitor protein (SEQ ID NO: 1) was incubated at an equimolar ratio with ^13C-labeled Aβ1-42 peptides. During this incubation, electron microscopic images were taken over the course of two weeks in accordance with Example 6. […] In fact, suspensions of Aβ1-42 protein (SEQ ID NO: 157) prepared at pH 7 were normally cloudy and formed gels during fibril growth.

[7] = target: Preformed amyloid fibrils comprising Aβ1-42 peptides (Homo sapiens, UniProt P05067); assay: Depolymerization of preformed amyloid fibrils (fluorescence intensity); type: biochemical; conditions: 1:20 molar ratio; for depolymerization of pre-existing Aβ1-42 fibrils (words): FIG. 8
Description: Preformed amyloid fibrils comprising Aβ1-42 peptides were incubated with and without SEQ ID NO: 1 (I1) a 1:20 molar ratio.

[8] = target: Aβ1-42 peptides (Homo sapiens, UniProt P05067); assay: Electron microscopy of Aβ1-42 fibril formation in presence of inhibitor protein; type: biochemical; conditions: equimolar ratio with 13C-labeled Aβ1-42 peptides; images over two weeks
Description: as §2
Fibrillized amyloid samples were prepared by incubation of aqueous solutions at an Aβ1-42 peptide concentration of approximately 0.2 mM in 1.0 mM phosphate buffer at pH 7.0 with the pH adjusted as necessary by dropwise addition of dilute NaOH or acetic acid. 0.01% NaN3 was added to inhibit bacterial and fungal growth. The solution was incubated for approximately 10 days at a temperature of 24° C., with gentle rocking (200 rpm). Aliquots of incubated solutions were taken for electron microscopic observations after 3-5 days. Amyloid fibril formation was verified by electron microscopic images of negatively stained samples.
For electron microscopic analysis, a 5 μL sample of the amyloid fibril was placed on a carbon coated Foamvar 200 mesh copper grid. The sample was allowed to stand for 15-30 sec and any excess solution was removed by wicking away. The samples were negatively stained with 2% (w/v) uranyl acetate. The excess was wicked away and allowed to dry. […]

[9] = target: T1, Aβ1-42 peptide; assay: Fluorescence thioflavin T assay of amyloid fibrillization; type: biochemical
Description: Amyloid fibrillization was measured by the fluorescence thioflavin T assay. Levine III, H, Methods in Enzymology 309: 274-305 (1999). The Aβ1-42 peptide was dissolved and fibrillization was followed over the course of two weeks by monitoring thioflavin T fluorescence. Hou et al., J. Am. Chem. Soc. in press (2004).
The effect of the inhibitor plateaus after three days and shown to be 70%±5 % effective in preventing fibrillization.
Inhibition activities were also measured by fluorescence intensity over time at the following molar ratios of Aβ1-42 peptide to SEQ ID NO:1 (I1) 1:0; 1:1; 1:5; and 1:20. (FIG. 7). […] Soto, et al., Nature Medicine 4:822-826 (1998); and Soto et al., Biochem. Biophys. Res. Comm. 226:672-680 (1996).

[10] = 24 hours of polymerization / 24 hour incubation, FIG. 10A, 10B

Preformed amyloid fibrils comprising Aβ1-42 peptides, sequence (P05067 672-713): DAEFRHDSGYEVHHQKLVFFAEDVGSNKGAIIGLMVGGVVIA
T1 sequence (P05067 672-713): as above
Aβ1-42 protein (SEQ ID NO: 157), sequence (P05067 672-713): as above
Aβ1-42 peptides, sequence (P05067 672-713): as above

In the case of “H-LPFFD-NH2 [SEQ ID NO: 160, NH2-LPFFD-NH2, reference compound]”, the “reported inhibitor activity (literature)” value [1] is listed as “effective inhibitor”, the “inhibition of Aβ1-42 peptide induced neurotoxicity” value [2, 10] is listed as “Neither SEQ ID NO: 1 or SEQ ID NO: 160 reduced neurotoxicity” and the “inhibition of Aβ1-42 peptide induced neurotoxicity” value ([2]; 24 hours of polymerization / 24 hour incubation, FIG. 10A, 10B, listed as SEQ ID NO:160) is listed as “does not inhibit”. The “inhibition of Aβ1-42 peptide induced neurotoxicity” value ([2]; 48 hours of polymerization / 48 hour incubation, FIG. 10C, 10D, listed as SEQ ID NO:160) was “does not inhibit”, the “reduction of Aβ1-42 neurotoxicity” value [2] was “Neither SEQ ID NO: 1 or SEQ ID NO: 160 reduced neurotoxicity” and the “toxicity of peptide by itself to neuronal cell culture” value (“toxicity of peptide by itself” below) [3] was “not toxic by themselves”. The “toxicity of peptide by itself” value ([3]; listed as I6) was “not present”, the viability at 48 h ([4]; 10X) was 97.9 ± 4.2% and the viability at 48 h ([4]; 20X) was 97.8 ± 6.6%.
For H-RGTFEGKF-NH2 [SEQ ID NO: 1], the “glycophorin A transmembrane peptide fibril formation” value ([5]; 1:1 molar ratio) was “can be blocked”, the “ability to inhibit amyloid fibril formation” value [5] was “most effective” and the “NMR cross peak between Met81 and Gly79 of GpA70-86 fibrils” value ([5]; equimolar amount of inhibitor, FIG. 4D) was “absent”. The “gel formation of Aβ1-42 suspensions” value ([6]; pH 7, over a two week period or longer) was “did not form gel compositions”, the “time until Aβ1-42 suspensions became clear after addition” value ([6]; suspensions prepared at pH 7) was “less than 5 seconds” and the “inhibition of Aβ1-42 peptide induced neurotoxicity” value [2, 10] was “Neither SEQ ID NO: 1 or SEQ ID NO: 160 reduced neurotoxicity”. For the same substance, the “inhibition of Aβ1-42 peptide induced neurotoxicity” value ([2]; 24 hours of polymerization / 24 hour incubation, FIG. 10A, 10B, listed as SEQ ID NO:1) was “does not inhibit”, the “inhibition of Aβ1-42 peptide induced neurotoxicity” value ([2]; 48 hours of polymerization / 48 hour incubation, FIG. 10C, 10D) was “dose-dependently inhibited neurotoxicity” and the “inhibition of Aβ1-42 peptide induced neurotoxicity” value ([2]; 48 hours of polymerization / 48 hour incubation, FIG. 10C, 10D, listed as SEQ ID NO:1) was “does inhibit”. For the same substance, the “amyloid plaque inhibition activity with protected termini” value [2] was “retain amyloid plaque inhibition activity”, the “reduction of Aβ1-42 neurotoxicity” value [2] was “Neither SEQ ID NO: 1 or SEQ ID NO: 160 reduced neurotoxicity” and the “depolymerization of pre-existing Aβ1-42 fibrils (words)” value [7] was “depolymerizes pre-existing amyloid fibrils”. The “depolymerization of pre-existing Aβ1-42 fibrils (words)” value ([7]; listed as SEQ ID NO:1) was “depolymerizes Aβ1-42 fibrils”, the “depolymerization rate and polymerization rate” value ([7]; after Day 4) was “apparently reaches equilibrium” and the depolymerization rate ([7]; first four incubation days) was “apparent linear depolymerization rate”. The “fibrils in electron microscopic images” value [8] was “no detectable fibrils”, the “toxicity of peptide by itself” value [3] was “not toxic by themselves” and the “toxicity of peptide by itself” value ([3]; listed as I1) was “not present”. For the same substance, the viability at 48 h ([4]; 10X) was 91.7 ± 5.6%, the viability at 48 h ([4]; 20X) was 90.5 ± 6.4% and the “inhibition of Aβ1-42 fibrillization / amyloid fibril polymerization (words)” value ([9]; FIG. 6, FIG. 7) was “inhibits amyloid fibril polymerization in a time and dose-dependent manner”. For the same substance, the “inhibition of Aβ1-42 fibrillization / amyloid fibril polymerization (words)” value ([9]; FIG. 6, FIG. 7, listed as SEQ ID NO:1) was “inhibits fibrillization”.
For RATFEAKF-NH2 [SEQ ID NO: 19], the “ability to inhibit amyloid fibril formation” value [5] was “most effective” and the “amyloid plaque inhibition activity with protected termini” value [2] was “retain amyloid plaque inhibition activity”.

Source: patent US20060062797A1, “Novel materials and methods for the treatment of Alzheimer's disease patients” (The Research Foundation of State University of New York at …, priority 2004, published 2006)
